These are literature values, as cited in patent publication US20100297195A1, “CONTROLLED RELEASE LAMOTRIGINE FORMULATIONS” (RANBAXY LABORATORIES LIMITED, priority 2009, published 2010).

The conditions of this data set: oral administration.

On to `Nc1nnc(-c2cccc(Cl)c2Cl)c(N)n1` [Lamotrigine, 3,5-diamino-6-(2,3-dichlorophenyl)-1,2,4-triazine], for which the absolute bioavailability is on record as 98% and the “effect of food on bioavailability” value is listed as “not affected by food”.
